Assay results as given in PubChem BioAssay (NCI).
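Values below derive from 48-hour exposures of cells grown in 96-well plates, with endpoints linearly interpolated between the two concentrations bracketing the appropriate inhibition level. Here, GI50 denotes the concentration required for 50% inhibition of growth. TGI denotes the concentration required for complete inhibition of growth.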

Tests used:
Assay in all cases: DTP human tumour cell line panel, 48 h
HOP-92 NSCLC = test system: HOP-92 NSCLC
ACHN renal = test system: ACHN renal
786-0 renal = test system: 786-0 renal
RXF 393 renal = test system: RXF 393 renal
HCT-116 colon = test system: HCT-116 colon
SK-MEL-5 melanoma = test system: SK-MEL-5 melanoma
SF-268 CNS = test system: SF-268 CNS
PC-3 prostate = test system: PC-3 prostate
MALME-3M melanoma = test system: MALME-3M melanoma
MCF7 breast = test system: MCF7 breast
HS 578T breast = test system: HS 578T breast
HCC-2998 colon = test system: HCC-2998 colon
OVCAR-3 ovarian = test system: OVCAR-3 ovarian
SK-MEL-28 melanoma = test system: SK-MEL-28 melanoma
NCI-H23 lung = test system: NCI-H23 lung
CCRF-CEM leukemia = test system: CCRF-CEM leukemia
MOLT-4 leukemia = test system: MOLT-4 leukemia
CAKI-1 renal = test system: CAKI-1 renal
COLO 205 colon = test system: COLO 205 colon
NCI-H460 lung = test system: NCI-H460 lung
MDA-MB-435 = test system: MDA-MB-435
TK-10 renal = test system: TK-10 renal
OVCAR-5 ovarian = test system: OVCAR-5 ovarian
DU-145 prostate = test system: DU-145 prostate
SNB-75 CNS = test system: SNB-75 CNS
SK-OV-3 ovarian = test system: SK-OV-3 ovarian
SF-539 CNS = test system: SF-539 CNS
RPMI-8226 leukemia = test system: RPMI-8226 leukemia
HOP-62 NSCLC = test system: HOP-62 NSCLC
U251 CNS = test system: U251 CNS
OVCAR-8 ovarian = test system: OVCAR-8 ovarian
EKVX NSCLC = test system: EKVX NSCLC
A549 NSCLC = test system: A549 NSCLC
NCI-H522 lung = test system: NCI-H522 lung
BT-549 breast = test system: BT-549 breast
SN12C renal = test system: SN12C renal
NCI/ADR-RES ovarian = test system: NCI/ADR-RES ovarian
KM12 colon = test system: KM12 colon
UACC-62 melanoma = test system: UACC-62 melanoma
M14 melanoma = test system: M14 melanoma
T-47D breast = test system: T-47D breast
SK-MEL-2 melanoma = test system: SK-MEL-2 melanoma
A498 renal = test system: A498 renal
K-562 leukemia = test system: K-562 leukemia
SW-620 colon = test system: SW-620 colon
HCT-15 colon = test system: HCT-15 colon
HT29 colon = test system: HT29 colon
UACC-257 melanoma = test system: UACC-257 melanoma
SNB-19 CNS = test system: SNB-19 CNS
UO-31 renal = test system: UO-31 renal
SR leukemia = test system: SR leukemia
MDA-MB-231 breast = test system: MDA-MB-231 breast

Structure (SMILES): O=C1/C(=C/c2ccccc2Cl)N=C(c2ccccc2)N1Cc1ccco1
- GI50 (HOP-92 NSCLC): 51.9 µM
- TGI (HOP-92 NSCLC): > 100 µM
- GI50 (ACHN renal): > 100 µM
- TGI (ACHN renal): > 100 µM
- GI50 (786-0 renal): 34.7 µM
- TGI (786-0 renal): > 100 µM
- GI50 (RXF 393 renal): 16.4 µM
- TGI (RXF 393 renal): 93 µM
- GI50 (HCT-116 colon): 18.5 µM
- TGI (HCT-116 colon): > 100 µM
- GI50 (SK-MEL-5 melanoma): 17.9 µM
- TGI (SK-MEL-5 melanoma): 36.3 µM
- GI50 (SF-268 CNS): 50.2 µM
- TGI (SF-268 CNS): > 100 µM
- GI50 (PC-3 prostate): 39 µM
- TGI (PC-3 prostate): > 100 µM
- GI50 (MALME-3M melanoma): 16.6 µM
- TGI (MALME-3M melanoma): 36 µM
- GI50 (MCF7 breast): 18.3 µM
- TGI (MCF7 breast): > 100 µM
- GI50 (HS 578T breast): 72.8 µM
- TGI (HS 578T breast): > 100 µM
- GI50 (HCC-2998 colon): 43.2 µM
- TGI (HCC-2998 colon): > 100 µM
- GI50 (OVCAR-3 ovarian): 26.9 µM
- TGI (OVCAR-3 ovarian): > 100 µM
- GI50 (SK-MEL-28 melanoma): 44.7 µM
- TGI (SK-MEL-28 melanoma): > 100 µM
- GI50 (NCI-H23 lung): 40.5 µM
- TGI (NCI-H23 lung): > 100 µM
- GI50 (CCRF-CEM leukemia): 5.35 µM
- TGI (CCRF-CEM leukemia): > 100 µM
- GI50 (MOLT-4 leukemia): 13.3 µM
- TGI (MOLT-4 leukemia): > 100 µM
- GI50 (CAKI-1 renal): 94.3 µM
- TGI (CAKI-1 renal): > 100 µM
- GI50 (COLO 205 colon): 51.4 µM
- TGI (COLO 205 colon): > 100 µM
- GI50 (NCI-H460 lung): 42.6 µM
- TGI (NCI-H460 lung): > 100 µM
- GI50 (MDA-MB-435): 20.1 µM
- TGI (MDA-MB-435): 49.9 µM
- GI50 (TK-10 renal): > 100 µM
- TGI (TK-10 renal): > 100 µM
- GI50 (OVCAR-5 ovarian): > 100 µM
- TGI (OVCAR-5 ovarian): > 100 µM
- GI50 (DU-145 prostate): 69.2 µM
- TGI (DU-145 prostate): > 100 µM
- GI50 (SNB-75 CNS): 50.3 µM
- TGI (SNB-75 CNS): > 100 µM
- GI50 (SK-OV-3 ovarian): > 100 µM
- TGI (SK-OV-3 ovarian): > 100 µM
- GI50 (SF-539 CNS): 63.8 µM
- TGI (SF-539 CNS): > 100 µM
- GI50 (RPMI-8226 leukemia): 25.4 µM
- TGI (RPMI-8226 leukemia): > 100 µM
- GI50 (HOP-62 NSCLC): > 100 µM
- TGI (HOP-62 NSCLC): > 100 µM
- GI50 (U251 CNS): 57.8 µM
- TGI (U251 CNS): > 100 µM
- GI50 (OVCAR-8 ovarian): > 100 µM
- TGI (OVCAR-8 ovarian): > 100 µM
- GI50 (EKVX NSCLC): 54 µM
- TGI (EKVX NSCLC): > 100 µM
- GI50 (A549 NSCLC): 27.7 µM
- TGI (A549 NSCLC): > 100 µM
- GI50 (NCI-H522 lung): 26.2 µM
- TGI (NCI-H522 lung): 66.7 µM
- GI50 (BT-549 breast): 39.8 µM
- TGI (BT-549 breast): > 100 µM
- GI50 (SN12C renal): 50.6 µM
- TGI (SN12C renal): > 100 µM
- GI50 (NCI/ADR-RES ovarian): > 100 µM
- TGI (NCI/ADR-RES ovarian): > 100 µM
- GI50 (KM12 colon): 36.1 µM
- TGI (KM12 colon): > 100 µM
- GI50 (UACC-62 melanoma): 12.6 µM
- TGI (UACC-62 melanoma): 34.7 µM
- GI50 (M14 melanoma): 18.6 µM
- TGI (M14 melanoma): 38.2 µM
- GI50 (T-47D breast): 53.2 µM
- TGI (T-47D breast): > 100 µM
- GI50 (SK-MEL-2 melanoma): 28.1 µM
- TGI (SK-MEL-2 melanoma): 55.1 µM
- GI50 (A498 renal): 24.3 µM
- TGI (A498 renal): 76.6 µM
- GI50 (K-562 leukemia): 24.2 µM
- TGI (K-562 leukemia): > 100 µM
- GI50 (SW-620 colon): 89.6 µM
- TGI (SW-620 colon): > 100 µM
- GI50 (HCT-15 colon): 25.5 µM
- TGI (HCT-15 colon): > 100 µM
- GI50 (HT29 colon): 36.4 µM
- TGI (HT29 colon): > 100 µM
- GI50 (UACC-257 melanoma): 21.2 µM
- TGI (UACC-257 melanoma): 39.8 µM
- GI50 (SNB-19 CNS): > 100 µM
- TGI (SNB-19 CNS): > 100 µM
- GI50 (UO-31 renal): 55.4 µM
- TGI (UO-31 renal): > 100 µM
- GI50 (SR leukemia): 26.2 µM
- TGI (SR leukemia): > 100 µM
- GI50 (MDA-MB-231 breast): 19.7 µM
- TGI (MDA-MB-231 breast): > 100 µM
